The values below come from patent publication US20080220416A1, “Compositions for Inhibiting Cell Growth and Inducing Apoptosis in Cancer Cells and Methods of Use Thereof” (THE BOARD OF TRUSTEES OF THE UNIVERSITY OF ILLINOI, priority 2004, published 2008).

Square brackets hold non-standard residues; d marks the D form. Peptide text beside a SMILES is read from it. * marks the point of attachment. Nle = CCCC[C@H](N)C(=O)O; Cbz = O=C(OCc1ccccc1)*

In general, IC50 refers to the concentration that inhibits the measured activity by half.

The test system of test [1] is MDA-MB231 breast cancer cells. Kind of test: Cytotoxicity and growth assay in MDA-MB231 breast cancer cells (SRB, TCA-precipitated protein). The test is classed as cell-based, human. The protocol:
An invasive, estrogen-independent breast cancer cell line that spontaneously expresses high levels of Notch-1 and -4, MDA-MB231, and normal human breast cells were used to investigate whether inhibition of Notch activation or expression affects the biological behavior of breast cancer cells. Human Mammary Epithelial Cells (HMEC) were purchased from Clonetics and cultured in mammary epithelial cell basal medium (MEBM) supplemented with 52 μg/ml Bovine Pituitary Extract […], […] human recombinant Epidermal Growth Factor (hEGF), 5 μg/ml insulin, 0.5 μg/ml Hydrocortisone, 50 μg/ml Gentamicin and 50 μg/ml Amphotericin-B. MDA-MB231 (ATCC, Rockville, Md.) were cultured in DMEM medium with 10% FBS. Notch expression in HMEC and MDA-MB231 cells was silenced using highly specific RNAi. Double-stranded synthetic 21-mer RNA oligonucleotides (siRNAs) were purchased from Dharmacon (Lafayette, Colo.). […] Sequence specificity was determined by BLAST searches which determined the uniqueness of the sequences. Transfection of siRNAs was performed using Oligofectamine (Invitrogen) as recommended by the siRNA manufacturer (Dharmacon). Transfection efficiency was optimized and followed on parallel wells using DNA double stranded oligos of identical sequence to the siRNAs, labeled with biotin on one strand. Transfected cells were identified by Streptavidin-horseradish peroxidase staining (Vectastain) and counted. Transfection efficiencies around 80% were routinely obtained.
Cytotoxicity and growth of transfected cells were estimated by a standard assay used for cancer drug screening, through the total amount of TCA-precipitated cell proteins after drug treatment (Likhitwitayawuid, K et al., 1993, J Nat Prod 56:30-38): 200 μl of cell suspension (10^5 cells/ml) were added to each well in a 96-well plate. After incubation at, 37° C., in 5% CO2 (30 minutes to 72 hours depending on the time course chosen), 50 μl 50% trichloroacetic acid was added to each well. After incubation at 4° C. for 1 hour, precipitates were washed with water 4-5 times and air dried overnight. One hundred μl of SRB solution (0.4% sulforhodamine B in 1% acetic acid, filtered before use) was added to each well for 30 minutes. Wells were washed with 1% acetic acid 4-5 times and air dried. Two hundred μl 10 mM Tris base was added to each well. Plates were shaken for 5-10 minutes and OD at 490 nm (OD490) was recorded via ELISA reader. To assay matrix invasion, 300 μl of cell suspension (10^6 cells/mL in serum-free medium) were added to invasion inserts (BioCoat Matrigel Invasion Chambers, Becton Dickinson, Bedford, Mass.) and incubated for 22 hours at 37° C., 5% CO2. […] After removal of the non-invading cells from the interior of the inserts, stained invading cells were lysed in 10% acetic acid and OD595 was determined. […]

The subject of test [2] is CaSki human cervical cancer cells. The experiment in a line: Apoptosis of CaSki cells (Annexin V flow cytometry, caspase 3 Western blot). The test is classed as cell-based. The protocol:
For the apoptosis measurement assay, the transformed CaSki human cervical cancer cells were treated with DMSO, or 25 μM, 50 μM or 100 μM cisplatin for 24 hours. After cisplatin treatment, the cells were collected and stained with fluorescein-conjugated annexin V and propidium iodide, using the APO TARGET Annexin-V FITC Apoptosis Kit (BioSource International, Inc., Camarillo, Calif.) according to the manufacturer's instructions. After the staining, the cells were sorted by flow cytometry with a FACScan instrument (Becton-Dickinson), Annexin-V positive stained cells were counted as apoptotic cells. Cells that were propidium iodide positive but annexin V negative were not counted as apoptotic cells.
To determine whether z-Leu-Leu-Nle-CHO induces cell death via apoptosis, CaSki cells were treated with various concentrations of z-Leu-Leu-Nle-CHO for 18 h and then either stained with Annexin-V-FITC as described above, or subject to Western blot analysis using antibody to both the pro-enzyme and active form of caspase-3 (Santa Cruz Biotechnology, Santa Cruz, Calif.) as described above.

Test [3] relates to C8161 melanoma cells. Kind of test: Proliferating versus serum-deprived C8161 melanoma cells, NOXA and apoptosis. The test is classed as cell-based, human. Particulars: for NOXA induction: proliferating (10% FCS) or serum-deprived (no serum) C8161. The protocol:
C8161 melanoma cells were induced into a relatively quiescent state by serum withdrawal. Proliferation assays were conducted in the presence or absence of 10% fetal calf serum (FCS) by manual counting of melanoma cells in triplicate wells on days 0, 1, 2 and 3. […] By phase contrast microscopy, the withdrawal of FCS arrested the cells (data not shown). This growth arrest was confirmed by Western blots of the cells that were maintained as either rapidly proliferating cells in the presence of 10% FCS or were growth arrested by serum withdrawal and washing with PBS for either 1 or 2 days. Whole cell extracts were prepared and Western blot analysis was performed as described above in Example 8 using antibodies to NOXA, p21 (SC-817, Santa Cruz Biotechnology, Santa Cruz, Calif.) and β-actin as described here and above.
Growth arrest induced by serum withdrawal was confirmed by induction of p21. […] Thus, not only can proteasome inhibitors selectively induce NOXA and kill melanoma cells and not kill melanocytes independent of p53, but melanoma cells are susceptible to killing even when maintained in a relatively quiescent state in vitro.

Take “5′-AAGTGTCTGAGGCCAGCAAGA-3′ [Notch-1 siRNA]”: in test [1] (MDA-MB231, siRNA transfection), the proliferation result is “inhibits proliferation of MDA-MB231 breast cancer cells”. The “effect on cisplatin-induced apoptosis” value in test [2] (cisplatin 25, 50 or 100 μM for 24 hours) is on record as “significantly enhances cisplatin-induced apoptosis”.
Turning to `CC(C)C[C@@H](C=O)NC(=O)[C@H](CC(C)C)NC(=O)[C@H](CC(C)C)NC(=O)OCc1ccccc1` [MG-132, benzoxycarbonyl-Leucyl-Leucyl-Leucyl-aldehyde] (Cbz-Leu-Leu-Leu-aldehyde), the NOXA induction result in test [3] is “trigger prominent NOXA induction”.
`CC(C)C[C@H](NC(=O)[C@H](Cc1ccccc1)NC(=O)c1cnccn1)B(O)O` [bortezomib, N-(2-pyrazine)carbonyl-L-phenylalanine-L-leucine boronic acid]: in test [3], the NOXA induction result is “trigger prominent NOXA induction”. In test [3] (serum-deprived versus proliferating C8161), the “cell death by apoptosis in serum-deprived cells” value is listed as “comparable to that seen in bortezomib-treated proliferating melanoma cells”.
For the molecule `CCCC[C@@H](C=O)NC(=O)[C@H](CC(C)C)NC(=O)[C@H](CC(C)C)NC(=O)OCc1ccccc1` [z-Leu-Leu-Nle-CHO, N-benzyloxycarbonyl-leucyl-leucyl-norleucinal] (Cbz-Leu-Leu-[Nle]-aldehyde), in test [1] (Homo sapiens, MDA-MB-231, MDA-MB231 (p53-mutant, ERα-negative), 48 h, read-out: IC50, cell growth inhibition), the IC50 is 1300 nM. In test [2] (18 h), the “caspase 3 activation” value is recorded as “dose-dependent caspase 3 activation” and the “mode of cell death (Annexin V flow cytometry)” value is on record as “primarily apoptotic”.
